Experimental data reported in ChEMBL document CHEMBL1201862, “PubChem BioAssay data set” (2004).
The source made the active and inactive calls.

How the values were obtained:
[1] = molecular target: T1, Polyadenylate-binding protein 1 (Homo sapiens, UniProt P11940); experiment: PABP1 MLLE–PAM2 interaction inhibitors, dose response, miRNA deadenylation inhibitor project, biochemical, fluorescence polarization, Cy5-PAM2 peptide, secondary (AID 602260); type: functional; details: read-out: IC50_Mean
T1 sequence (P11940 whole entry): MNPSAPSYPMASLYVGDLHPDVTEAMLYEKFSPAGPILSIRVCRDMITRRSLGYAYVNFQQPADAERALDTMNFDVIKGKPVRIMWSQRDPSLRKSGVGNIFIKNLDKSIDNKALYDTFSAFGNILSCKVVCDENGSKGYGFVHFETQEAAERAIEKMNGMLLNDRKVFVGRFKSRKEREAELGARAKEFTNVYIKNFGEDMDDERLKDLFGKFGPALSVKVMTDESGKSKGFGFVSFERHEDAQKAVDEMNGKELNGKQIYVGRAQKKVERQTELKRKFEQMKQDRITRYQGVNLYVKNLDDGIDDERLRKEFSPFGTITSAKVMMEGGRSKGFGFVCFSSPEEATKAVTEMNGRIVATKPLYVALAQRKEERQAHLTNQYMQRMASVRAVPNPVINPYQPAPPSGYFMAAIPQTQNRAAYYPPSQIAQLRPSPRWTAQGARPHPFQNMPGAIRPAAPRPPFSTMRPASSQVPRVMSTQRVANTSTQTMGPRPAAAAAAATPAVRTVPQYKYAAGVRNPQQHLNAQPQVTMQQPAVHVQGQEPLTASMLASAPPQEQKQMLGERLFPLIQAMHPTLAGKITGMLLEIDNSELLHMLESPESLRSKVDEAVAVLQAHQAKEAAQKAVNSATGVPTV

[2] = molecular target: T1, Polyadenylate-binding protein 1; experiment: PABP1 MLLE–PAM2 binding inhibitor potency, dose response, biochemical, fluorescence polarization, FITC-PAM2 peptide (AID 602259); type: functional; details: read-out: IC50_Mean
[3] = molecular target: T2, Replicative DNA helicase DnaB (Mycobacterium tuberculosis, UniProt P9WMR3); experiment: DnaB intein splicing inhibitors, dose response, biochemical, cell-free fluorescence (AID 449749); type: functional
T2 sequence (P9WMR3 whole entry): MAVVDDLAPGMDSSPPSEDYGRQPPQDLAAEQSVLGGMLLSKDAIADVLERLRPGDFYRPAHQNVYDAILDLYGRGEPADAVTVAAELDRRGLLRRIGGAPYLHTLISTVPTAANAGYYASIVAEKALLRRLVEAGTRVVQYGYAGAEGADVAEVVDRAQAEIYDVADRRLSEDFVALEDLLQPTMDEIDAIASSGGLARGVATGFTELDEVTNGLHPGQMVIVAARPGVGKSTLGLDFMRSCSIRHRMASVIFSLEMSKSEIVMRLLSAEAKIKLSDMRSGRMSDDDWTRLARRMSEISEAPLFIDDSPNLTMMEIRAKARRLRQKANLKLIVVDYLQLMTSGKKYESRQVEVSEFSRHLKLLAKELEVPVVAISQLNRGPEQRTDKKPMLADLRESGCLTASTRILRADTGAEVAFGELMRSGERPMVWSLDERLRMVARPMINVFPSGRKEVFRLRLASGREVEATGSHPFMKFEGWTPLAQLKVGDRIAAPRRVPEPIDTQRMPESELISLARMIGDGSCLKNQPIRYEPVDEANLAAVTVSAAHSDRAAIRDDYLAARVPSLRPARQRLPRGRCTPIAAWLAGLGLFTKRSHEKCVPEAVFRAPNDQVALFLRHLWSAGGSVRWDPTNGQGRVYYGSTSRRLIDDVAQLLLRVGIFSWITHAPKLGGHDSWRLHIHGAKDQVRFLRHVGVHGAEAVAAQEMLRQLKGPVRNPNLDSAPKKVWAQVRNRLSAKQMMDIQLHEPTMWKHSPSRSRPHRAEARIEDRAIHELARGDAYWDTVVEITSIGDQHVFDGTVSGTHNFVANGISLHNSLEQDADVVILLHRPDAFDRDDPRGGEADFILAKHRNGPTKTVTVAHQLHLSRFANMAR

Protein RecA = molecular target: T3, Protein RecA (Mycobacterium tuberculosis, UniProt P9WHJ3); experiment: Fluorescence Cell-Free Homogeneous Dose Retest to Identify Inhibitors of RecA-Intein Splicing Activity. [Related pubchem assays (depositor defined):AID2097, AID2223, AID489010, AID492950]; type: functional
T3 sequence (P9WHJ3 whole entry): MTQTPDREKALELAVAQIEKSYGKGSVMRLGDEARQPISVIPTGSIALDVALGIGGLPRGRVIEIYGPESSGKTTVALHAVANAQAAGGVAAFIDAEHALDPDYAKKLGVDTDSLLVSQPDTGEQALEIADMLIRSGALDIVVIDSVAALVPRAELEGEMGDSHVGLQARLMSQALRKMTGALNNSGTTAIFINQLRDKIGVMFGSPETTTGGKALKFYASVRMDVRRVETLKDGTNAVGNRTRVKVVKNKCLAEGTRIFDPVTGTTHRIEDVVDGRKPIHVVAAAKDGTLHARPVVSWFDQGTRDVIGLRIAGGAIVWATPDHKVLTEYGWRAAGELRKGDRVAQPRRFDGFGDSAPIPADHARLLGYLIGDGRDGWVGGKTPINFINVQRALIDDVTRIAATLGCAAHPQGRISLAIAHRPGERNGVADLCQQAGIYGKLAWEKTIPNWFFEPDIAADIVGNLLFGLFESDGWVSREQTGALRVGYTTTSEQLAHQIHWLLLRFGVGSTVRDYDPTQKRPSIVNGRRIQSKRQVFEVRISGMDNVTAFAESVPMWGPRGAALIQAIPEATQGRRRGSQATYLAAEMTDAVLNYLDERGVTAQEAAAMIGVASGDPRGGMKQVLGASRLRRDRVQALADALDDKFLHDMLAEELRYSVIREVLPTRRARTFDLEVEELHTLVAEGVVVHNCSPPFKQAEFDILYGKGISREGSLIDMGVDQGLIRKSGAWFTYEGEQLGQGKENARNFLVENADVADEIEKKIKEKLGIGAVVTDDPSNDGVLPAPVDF

Cytochrome P450 2D6 = Cytochrome P450 2D6 (Homo sapiens, UniProt P10635);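 note: CYP2D6 member of a cytochrome P450 panel assay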
Cytochrome P450 2D6, sequence (P10635 whole entry): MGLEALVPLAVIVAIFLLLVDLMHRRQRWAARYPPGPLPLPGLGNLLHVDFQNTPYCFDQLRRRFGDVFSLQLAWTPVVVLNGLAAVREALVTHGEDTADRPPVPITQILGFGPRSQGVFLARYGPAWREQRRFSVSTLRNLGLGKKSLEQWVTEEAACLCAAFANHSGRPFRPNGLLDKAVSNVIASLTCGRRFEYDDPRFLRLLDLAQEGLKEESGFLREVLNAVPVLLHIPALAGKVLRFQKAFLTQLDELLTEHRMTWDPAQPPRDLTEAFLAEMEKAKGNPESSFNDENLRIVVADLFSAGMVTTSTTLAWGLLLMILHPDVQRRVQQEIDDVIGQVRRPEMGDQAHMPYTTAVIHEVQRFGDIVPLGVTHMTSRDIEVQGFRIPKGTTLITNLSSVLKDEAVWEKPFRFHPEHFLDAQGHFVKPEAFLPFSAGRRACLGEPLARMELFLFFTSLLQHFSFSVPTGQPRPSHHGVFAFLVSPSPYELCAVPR

Cytochrome P450 1A2 = molecular target: T4, Cytochrome P450 1A2 (Homo sapiens, UniProt P05177);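 note: PubChem cytochrome P450 panel assay, CYP1A2 panel member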
T4 sequence (P05177 whole entry): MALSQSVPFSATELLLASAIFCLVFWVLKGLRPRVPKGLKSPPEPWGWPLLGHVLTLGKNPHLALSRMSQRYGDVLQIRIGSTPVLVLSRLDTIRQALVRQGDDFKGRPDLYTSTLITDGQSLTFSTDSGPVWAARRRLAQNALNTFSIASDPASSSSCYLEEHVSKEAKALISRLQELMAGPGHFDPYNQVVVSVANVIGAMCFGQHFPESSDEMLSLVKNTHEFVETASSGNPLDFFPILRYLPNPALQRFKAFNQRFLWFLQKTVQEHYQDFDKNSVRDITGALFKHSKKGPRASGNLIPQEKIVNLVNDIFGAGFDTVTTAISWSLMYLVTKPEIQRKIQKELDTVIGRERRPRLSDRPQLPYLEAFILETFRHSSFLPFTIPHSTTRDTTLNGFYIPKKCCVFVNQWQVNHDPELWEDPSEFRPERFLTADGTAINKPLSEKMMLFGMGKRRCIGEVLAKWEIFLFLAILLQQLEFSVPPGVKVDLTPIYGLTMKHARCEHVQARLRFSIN

Cytochrome P450 3A4 = Cytochrome P450 3A4 (Homo sapiens, UniProt P08684);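 note: CYP3A4 tested as one member of a cytochrome P450 panel screen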
Cytochrome P450 3A4, sequence (P08684 whole entry): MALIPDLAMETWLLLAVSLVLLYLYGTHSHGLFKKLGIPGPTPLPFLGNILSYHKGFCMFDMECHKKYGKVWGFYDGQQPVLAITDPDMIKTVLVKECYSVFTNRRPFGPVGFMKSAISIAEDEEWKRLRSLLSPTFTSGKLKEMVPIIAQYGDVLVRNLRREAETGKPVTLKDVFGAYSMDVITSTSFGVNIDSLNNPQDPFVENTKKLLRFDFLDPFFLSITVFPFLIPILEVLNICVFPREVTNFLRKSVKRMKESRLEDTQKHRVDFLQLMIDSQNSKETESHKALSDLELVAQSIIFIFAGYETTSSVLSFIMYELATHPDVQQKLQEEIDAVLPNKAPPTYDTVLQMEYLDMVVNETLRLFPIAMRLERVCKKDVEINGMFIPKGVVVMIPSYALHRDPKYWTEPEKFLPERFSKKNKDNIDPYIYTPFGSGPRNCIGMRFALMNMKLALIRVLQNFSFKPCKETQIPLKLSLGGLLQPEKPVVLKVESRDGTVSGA

Cytochrome P450 2C9 = Cytochrome P450 2C9 (Homo sapiens, UniProt P11712)
Cytochrome P450 2C9, sequence (P11712 whole entry): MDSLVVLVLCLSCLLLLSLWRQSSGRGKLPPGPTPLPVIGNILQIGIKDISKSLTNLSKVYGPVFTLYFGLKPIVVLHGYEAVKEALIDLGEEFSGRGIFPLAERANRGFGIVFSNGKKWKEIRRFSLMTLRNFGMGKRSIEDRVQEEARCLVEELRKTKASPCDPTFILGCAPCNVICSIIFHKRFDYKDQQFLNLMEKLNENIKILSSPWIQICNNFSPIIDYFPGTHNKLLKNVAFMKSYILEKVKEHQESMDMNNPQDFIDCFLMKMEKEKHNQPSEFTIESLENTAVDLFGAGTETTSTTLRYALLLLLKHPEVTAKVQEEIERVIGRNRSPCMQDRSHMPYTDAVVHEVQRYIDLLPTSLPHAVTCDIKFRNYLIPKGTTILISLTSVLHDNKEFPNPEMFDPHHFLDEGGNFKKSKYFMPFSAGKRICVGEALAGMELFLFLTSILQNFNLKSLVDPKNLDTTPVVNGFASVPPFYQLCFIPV

Cytochrome P450 2C19 = Cytochrome P450 2C19 (Homo sapiens, UniProt P33261); experiment: Cytochrome panel assay with activity outcomes. Panel member name: p450-cyp2c19 Compounds with AC50 equal or less than 10 uM are considered active; type: functional; details: read-out: AC50
Cytochrome P450 2C19, sequence (P33261 whole entry): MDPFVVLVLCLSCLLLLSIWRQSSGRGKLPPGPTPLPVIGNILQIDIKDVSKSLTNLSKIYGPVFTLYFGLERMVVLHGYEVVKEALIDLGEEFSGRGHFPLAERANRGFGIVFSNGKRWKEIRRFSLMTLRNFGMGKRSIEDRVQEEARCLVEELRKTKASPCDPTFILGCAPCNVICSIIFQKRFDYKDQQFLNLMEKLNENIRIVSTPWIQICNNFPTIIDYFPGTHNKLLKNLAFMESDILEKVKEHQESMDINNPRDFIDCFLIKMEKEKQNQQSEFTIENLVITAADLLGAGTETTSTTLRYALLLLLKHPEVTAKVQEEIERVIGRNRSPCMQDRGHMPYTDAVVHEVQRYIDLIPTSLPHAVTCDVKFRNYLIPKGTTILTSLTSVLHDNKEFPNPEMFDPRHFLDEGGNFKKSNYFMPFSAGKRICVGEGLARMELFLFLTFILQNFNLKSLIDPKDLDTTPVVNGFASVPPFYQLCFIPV

[4] = molecular target: T5, Corticotropin-releasing factor receptor 2/Corticotropin-releasing factor-binding protein (Homo sapiens, UniProt P24387+Q13324); experiment: activators of CRF receptor 2 with binding protein – uHTS hits, confirmation (AID 602473); type: functional; details: read-out: EC50_Mean
T5 sequence (Q13324 whole entry): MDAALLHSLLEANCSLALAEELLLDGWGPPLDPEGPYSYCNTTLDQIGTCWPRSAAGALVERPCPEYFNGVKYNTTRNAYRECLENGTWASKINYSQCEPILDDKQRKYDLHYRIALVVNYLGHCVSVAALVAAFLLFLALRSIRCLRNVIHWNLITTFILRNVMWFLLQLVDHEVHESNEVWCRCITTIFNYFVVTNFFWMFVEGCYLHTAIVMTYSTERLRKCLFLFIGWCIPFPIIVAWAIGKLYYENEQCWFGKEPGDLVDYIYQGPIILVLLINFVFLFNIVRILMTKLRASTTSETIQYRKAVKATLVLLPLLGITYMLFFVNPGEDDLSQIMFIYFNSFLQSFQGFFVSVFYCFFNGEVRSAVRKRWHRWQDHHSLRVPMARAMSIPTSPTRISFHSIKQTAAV
T5 sequence (P24387 whole entry): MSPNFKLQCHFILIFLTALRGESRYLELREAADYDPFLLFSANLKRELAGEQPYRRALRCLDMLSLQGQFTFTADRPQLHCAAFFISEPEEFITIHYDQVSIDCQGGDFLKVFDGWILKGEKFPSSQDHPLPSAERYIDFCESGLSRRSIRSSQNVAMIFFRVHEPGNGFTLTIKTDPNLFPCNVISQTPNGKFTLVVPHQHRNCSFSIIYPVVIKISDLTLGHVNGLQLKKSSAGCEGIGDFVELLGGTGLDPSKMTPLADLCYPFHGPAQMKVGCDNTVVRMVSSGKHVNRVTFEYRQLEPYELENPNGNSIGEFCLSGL

Cc1ccc(C(=O)NC(=S)Nc2cccc(-c3nc4ccccc4s3)c2)cc1
IC50 [1]: > 66 µM (inactive) | IC50 [2]: > 66 µM (inactive)

CCN1CCc2c(C#N)c(N3CCOCC3)nc(NCCO)c2C1
IC50 [1]: > 66 µM (inactive) | IC50 [2]: > 66 µM (inactive)

Cc1ccc(NC(=O)CSc2ncnc3ccccc23)cc1S(=O)(=O)N1CCCCCC1
AC50 [3]: 20.1 µM (active) | EC50 (Protein RecA): 2.66 µM (active)

COc1ccc(CCC(C)Nc2cccc(F)c2)cc1 (configuration not stated)
AC50 (Cytochrome P450 2D6): 10 µM (inconclusive)

COC(=O)c1c(C)oc2ccc(N(C(=O)c3ccncc3)S(=O)(=O)c3ccccc3)cc12
AC50 (Cytochrome P450 2D6): 0.0355 µM (inconclusive)

CCN(CC(=O)NCc1ccc(Cl)cc1)C(=O)CNS(=O)(=O)c1ccc(NC(C)=O)cc1
IC50 [1]: > 66 µM (inactive) | IC50 [2]: > 66 µM (inactive)

O=C(c1cc(C(F)(F)F)cc(C(F)(F)F)c1)N1CCC2(CC1)CN(c1ccccn1)C2
AC50 (Cytochrome P450 2D6): 12.6 µM (inconclusive)

Cc1cc(C)n(N=C(S)NC2CCCCC2)c(=O)c1C#N
IC50 [1]: > 66 µM (inactive) | IC50 [2]: > 66 µM (inactive)

COc1cccc(Nc2c([N+](=O)[O-])cncc2[N+](=O)[O-])c1
AC50 [3]: 12.9 µM (active) | EC50 (Protein RecA): 8.86 µM (active)

CC(N=C(S)Nc1ccccc1C(F)(F)F)C1CC2CCC1C2 (configuration not stated)
IC50 [1]: > 66 µM (inactive) | IC50 [2]: > 66 µM (inactive)

Cn1cccc1C(=O)N1CCC2(CCCN(c3ccccn3)C2)CC1
AC50 (Cytochrome P450 1A2): 20 µM (inconclusive) | AC50 (Cytochrome P450 3A4): 20 µM (inconclusive) | AC50 (Cytochrome P450 2D6): 25.1 µM (inconclusive) | AC50 (Cytochrome P450 2C9): 25.1 µM (inconclusive)

Cc1noc(C)c1CSCC(=O)Oc1ccc(N(C)S(=O)(=O)c2ccccc2)cc1
AC50 [3]: 4.1 µM (active) | EC50 (Protein RecA): 22.3 µM (active)

CC1(C)CC2(C)OC(=N)C1(C#N)C2(C#N)C#N (configuration not stated)
AC50 [3]: 70.3 µM (active) | EC50 (Protein RecA): 12.3 µM (active)

CN(Cc1ccco1)c1ncncc1-c1ccoc1
AC50 (Cytochrome P450 2C19): 39.8 µM (inconclusive) | AC50 (Cytochrome P450 3A4): 3.16 µM (inconclusive) | AC50 (Cytochrome P450 2D6): 39.8 µM (inconclusive)

O=C(CSc1ncnc2c1nnn2Cc1ccc(F)cc1)NCC1CCCO1 (configuration not stated)
AC50 [3]: 14.3 µM (active) | EC50 (Protein RecA): 10.2 µM (active)

CCS(=O)(=O)C1=NN2C(=N)/C(=C\c3ccc(OC(=O)c4ccco4)cc3)C(=O)N=C2S1
AC50 [3]: > 380 µM (inactive) | EC50 (Protein RecA): 19.4 µM (active)

O=[N+]([O-])/C=C\c1cc2ccccc2[nH]1
AC50 (Cytochrome P450 2C19): 5.01 µM (inconclusive) | AC50 (Cytochrome P450 2D6): 5.01 µM (inconclusive)

COc1cccc(N2CC(C(=O)Nc3nnc(SCC(=O)c4ccccc4)s3)CC2=O)c1 (configuration not stated)
AC50 [3]: 181 µM (active) | EC50 (Protein RecA): > 380 µM (inactive)

Cc1ccccc1-c1nc(C[S+]([O-])CC(=O)N2CCC3(CC2)OCCO3)c(C)o1 (configuration not stated)
AC50 (Cytochrome P450 1A2): 25.1 µM (inconclusive) | AC50 (Cytochrome P450 2D6): 25.1 µM (inconclusive)

O=Cc1c(N2CCN(CCO)CC2)nc2ccccn2c1=O
IC50 [1]: > 66 µM (inactive) | IC50 [2]: > 66 µM (inactive) | EC50 [4]: > 53 µM (inactive)

COc1ccc(CCN(C)Cc2ccc(OCc3ccccc3)c(OC)c2)cc1OC
AC50 (Cytochrome P450 1A2): 39.8 µM (inconclusive) | AC50 (Cytochrome P450 2D6): 14.1 µM (inconclusive) | AC50 (Cytochrome P450 2C9): 15.8 µM (inconclusive)

CN(C1CCCCC1)S(=O)(=O)c1ccc(S)nc1
IC50 [1]: > 66 µM (inactive) | IC50 [2]: > 66 µM (inactive)

CN(C)c1ncc2nc(CCc3ccccc3)c(=O)n(Cc3ccc(F)cc3)c2n1
AC50 (Cytochrome P450 3A4): 3.98 µM (inconclusive) | AC50 (Cytochrome P450 2D6): 25.1 µM (inconclusive)

CCOc1ccc(-n2c(C)nc3cc(C(=O)NCc4ccco4)ccc32)cc1
AC50 (Cytochrome P450 1A2): 25.1 µM (inconclusive) | AC50 (Cytochrome P450 2D6): 11.2 µM (inconclusive)

Cc1ccc(C(=O)NC(=S)NNS(=O)(=O)c2ccccc2)cc1
IC50 [1]: > 66 µM (inactive) | IC50 [2]: > 66 µM (inactive)

COc1ccccc1CNc1cc(-c2ccccc2C)ncn1
AC50 (Cytochrome P450 3A4): 31.6 µM (inconclusive) | AC50 (Cytochrome P450 2D6): 15.8 µM (inconclusive)

Cc1cc(O)nc(SCn2nnc3ccccc3c2=O)n1
IC50 [1]: > 66 µM (inactive) | IC50 [2]: > 66 µM (inactive)

Cc1n[nH]c2c1C(c1cnn(C)c1)C(C#N)=C(N)O2 (configuration not stated)
AC50 [3]: 14.2 µM (active) | EC50 (Protein RecA): 3.67 µM (active)

O=C(NC(=S)Nc1cccc(O)c1)c1cncc(Br)c1
IC50 [1]: > 66 µM (inactive) | IC50 [2]: > 66 µM (inactive)

CN(C)/C=N/c1ccc2nn(-c3ccccc3)nc2c1
AC50 (Cytochrome P450 2D6): 25.1 µM (inconclusive) | AC50 (Cytochrome P450 2C9): 15.8 µM (inconclusive)

O=C(N/N=C\c1ccc(-c2ccccc2[N+](=O)[O-])o1)C1COc2ccccc2O1 (configuration not stated)
AC50 [3]: 7.94 µM (active) | EC50 (Protein RecA): 12.4 µM (active)

Nc1nc(NCCc2ccc(O)cc2)nc2nc(-c3ccco3)nn12 [ZM-241385]
AC50 (Cytochrome P450 1A2): 31.6 µM (inconclusive) | AC50 (Cytochrome P450 2D6): 10 µM (inconclusive) | AC50 (Cytochrome P450 2C9): 39.8 µM (inconclusive)
